Assay results from patent US5214174A, “Platinum complex and anti-tumor agent comprising said complex as active ingredient” (Tsumura & Co., priority 1989, dated 1993).

Legend:
Acute toxicity test = type: in vivo, mouse (male, ICR family); details: administration into the abdominal cavity, male ICR mice
[1] = test system: P388 mouse leukemia cells; assay: Inhibition of propagation of cancer cells, MTT method, 48 hours; type: cell-based; details: 37° C.
Protocol: (§1) L1210 mouse leukemia cells, P388 mouse leukemia cells, Hela human uterine neck cancer cells, T24 human bladder cancer cells or MCF7 human mammary cancer cells were suspended in Eagle medium (Hela and T24) containing 10% bovine fetal serum, PRMI1640 medium (L1210 and MCF7) or PRM11740 medium (P388) mixed with 5×10^-5 M mercaptoethanol, and the cells were seeded on a 96-well plate at an inoculum size of 3×10^3 cells per hole. A compound obtained in an example described below or cysplatin (CDDP) was diluted with physiological saline solution and added to the medium at various concentrations. Culturing was conducted at 37° C. for 48 hours in a carbon dioxide incubator, and the propagation of cells was determined by the MTT [3-(4,5-dimethylthiazol-2-yl-)-2,5-diphenyl tetrazolium bromide] method (J. Immunol. Method, 65, 55, 1983). The absorbance A after 48 hours of culturing at each concentration, the absorbance B after 48 hours of culturing in the control, and the absorbance C before addition of the compound obtained in the example were determined, and the propagation reaction rate D of each concentration was calculated from the following formula: [formula] The concentration IC50, unit: μg/ml) of the compound obtained in the example giving the value corresponding to 50% of the value of the control was determined from the curve showing the relationship between the concentration of the compound obtained in the example and the propagation reaction rate.

[2] = test system: MCF7 human mammary cancer cells; assay: as above; type: cell-based; details: 37° C.
Protocol: as §1

[3] = test system: L1210 mouse leukemia cells; assay: as above; type: cell-based; details: 37° C.
Protocol: as §1

[4] = test system: T24 human bladder cancer cells; assay: as above; type: cell-based; details: 37° C.
Protocol: as §1

[5] = test system: Hela human uterine neck cancer cells; assay: as above; type: cell-based; details: 37° C.
Protocol: as §1

[6] = test system: Mouse leukemia L1210 cells; assay: Anti-tumor effect (life prolongation) in mice transplanted with L1210 cells; type: in vivo, mouse (female BDF1); details: abdominal cavity; for ILS30 (dose giving a 30% life-prolonging effect over the control group) / ILSmax (dose giving a highest life-prolonging effect) / TR (cure ratio; ILSmax/ILS30) / T/C (life prolongation ratio) / ratio of the number of surviving mice to the number of tested mice / Average Survival Day Number: once a day for 3 days; for ratio of the number of surviving mice to the number of tested mice: 30th day; for Average Survival Day Number: 30 days
Protocol: Mouse leukemia L1210 cells (1×10^5) were transplanted into the abdominal cavity of a 6-weeks-old female BDF1 mouse. Then, continuously for 3 days from the next day, a compound of a compound obtained in an example described below or CDDP was administered to the abdominal cavity once a day. In the control group, physiological saline solution alone was similarly administered.
The anti-tumor effect was evaluated based on the life prolongation ratio (T/C value) determined from the average survival day numbers of the group of the compound obtained in the example and the control group after 30 days from the transplantation of L1210. On the 30th day from the transplantation, the experiment was concluded. In the case of mice surviving for more than 30 days, the survival day number was regarded as 30. [formula] The average survival day number at each dose, the T/C value (%) and the ratio of the number of surviving mice upon termination of the experiment to the number of tested mice are shown in Table 2. The ILS30 value (the dose giving a 30% life-prolonging effect over the control group), the ILSmax value (the dose giving a highest life-prolonging effect), the TR value (cure ratio; ILSmax /ILS30) and the CR value (the ratio of the number of mice completely cured at the ILSmax value and the number of mice showing no propagation of a tumor after 30 days from the transplantation to the number of tested mice) are shown in Table 3.
Note, 1 indicates the ratio of the number of surviving mice to the number of tested mice.

Compound | IC50 [1] | IC50 [2] | IC50 [3] | IC50 [4] | IC50 [5] | ILS30 (dose giving a 30% life-prolonging effect over the control group) [6] | ILSmax (dose giving a highest life-prolonging effect) [6] | TR (cure ratio; ILSmax/ILS30) [6] | CR (ratio of mice completely cured at ILSmax and showing no propagation of a tumor after 30 days to tested mice) [6] | also measured
[NH2][Pt]([NH2])([Cl])[Cl] [CDDP, cisplatin, reference compound] | 0.09 µg/mL | 3.28 µg/mL | 0.46 µg/mL | 1.51 µg/mL | 1.42 µg/mL | 1.5 mg/kg | 6.0 mg/kg | 4 | 3/6 | LD50 (Acute toxicity test): 14.6 mg/kg
1:1 mixture of oxalate-(1R,2R)-diaminocyclooctane platinum (II) and oxalate-(1S,2S)-diaminocyclooctane platinum (II) [Example 1] | 0.06 µg/mL | 0.41 µg/mL | 0.03 µg/mL | 1.43 µg/mL | 0.29 µg/mL | 0.06 mg/kg | 10.0 mg/kg | 167 | 6/6 | T/C (life prolongation ratio) ([6]; 0.3 mg/kg): > 183%; ratio of the number of surviving mice to the number of tested mice ([6]; 0.3 mg/kg): 1/6; Average Survival Day Number ([6]; 0.3 mg/kg): > 16.8 days; T/C (life prolongation ratio) ([6]; 1.0 mg/kg): > 214%; ratio of the number of surviving mice to the number of tested mice ([6]; 1.0 mg/kg): 1/6; Average Survival Day Number ([6]; 1.0 mg/kg): > 19.7 days; T/C (life prolongation ratio) ([6]; 3.0 mg/kg): > 220%; ratio of the number of surviving mice to the number of tested mice ([6]; 3.0 mg/kg): 2/6; Average Survival Day Number ([6]; 3.0 mg/kg): > 20.3 days; T/C (life prolongation ratio) ([6]; 10.0 mg/kg): > 326%; ratio of the number of surviving mice to the number of tested mice ([6]; 10.0 mg/kg): 6/6; Average Survival Day Number ([6]; 10.0 mg/kg): > 30.0 days
